Assay: recombinant UMI read abundance after kanamycin selection (control-corrected) (log10(CPM+1)); higher = more efficient recombination; extreme values may be limits of the assay; sequences stand for … in AGTGCAGAGAAAATCGGCCAGTTTTCTCTGCCTGCAGTCCGCATGCCGTGGGACCCCTTGGGTTCTAACCTGTTGCCTAGATTTATGCAGCGGACTGCCTTTCTCCCAAAGTGATAAACCGG…AGGTTGGTTTCACT; site = the 11-nt donor
Summary of the method: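 In Escherichia coli, a pool of donor and donor-binding-loop pairs, each with a 12-nt UMI, was tested for the IS621 bridge recombinase. Plating was on IPTG (0.07 mM) plus kanamycin, or without selection, in two replicates. Recombinant UMIs were amplified by PCR across the donor–target junction and sequenced, and counts were reported as log10(CPM+1) after averaging and control-derived scaling.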
For “ACATGAACATGGACCGGTTTTCCCGGTAATCCGTATTTGTC (site ACAGGAACTGA)”, the “recombinant UMI read abundance (log10)” value was 0.
In the case of “TTGACCCCATGGACCGGTTTTCCCGGTAATCCGTATTTGAT (site TTGACCCCTAT)”, the “recombinant UMI read abundance (log10)” value is reported as 0.347.
With “CTGAATCCATGGACCGGTTTTCCCGGTAATCCGTATTTGGT (site CGGAATCCTAA)” the “recombinant UMI read abundance (log10)” value was 0.0153.
In the case of “CGGAAACCATGGACCGGTTTTCCCGGTAATCCGTATTTGCT (site CGGAATCCTAA)”, the “recombinant UMI read abundance (log10)” value is reported as 0.
With “CGTGGAACATGGACCGGTTTTCCCGGTAATCCGTATTTGAT (site CGTGGAACTAA)” the “recombinant UMI read abundance (log10)” value was 0.00774.
With “ATTGAGACATGGACCGGTTTTCCCGGTAATCCGTATTTGGT (site ATTGAGACTAT)” the “recombinant UMI read abundance (log10)” value was 1.17.
For “CGGGAACCATGGACCGGTTTTCCCGGTAATCCGTATTTGAT (site CGCGAACCTAT)”, the “recombinant UMI read abundance (log10)” value was 0.
For “CAGTTCCCATGGACCGGTTTTCCCGGTAATCCGTATTTGCT (site CACTTCCCTAG)”, the “recombinant UMI read abundance (log10)” value was 0.644.
With “GGAGTGGCATGGACCGGTTTTCCCGGTAATCCGTATTTGCT (site GGAGTGGCTAA)” the “recombinant UMI read abundance (log10)” value was 0.463.
For “CTACTAACATGGACCGGTTTTCCCGGTAATCCGTATTTGGG (site CTACTAACTAC)”, the “recombinant UMI read abundance (log10)” value was 0.0214.
For “CACTTTGCATGGACCGGTTTTCCCGGTAATCCGTATTTGGA (site CACTTTGCTTC)”, the “recombinant UMI read abundance (log10)” value was 1.71.
In the case of “CGGGACTCATGGACCGGTTTTCCCGGTAATCCGTATTTGCC (site CGGGAATCTGG)”, the “recombinant UMI read abundance (log10)” value is reported as 2.14.
With “CCGTATACATGGACCGGTTTTCCCGGTAATCCGTATTTGCT (site CCGTCTACTAG)” the “recombinant UMI read abundance (log10)” value was 0.
With “GGTTAGACATGGACCGGTTTTCCCGGTAATCCGTATTTGAG (site AGTTAGACTCT)” the “recombinant UMI read abundance (log10)” value was 0.498.
In the case of “GCTTGCCCATGGACCGGTTTTCCCGGTAATCCGTATTTGAG (site GCTTGCCCTTT)”, the “recombinant UMI read abundance (log10)” value is reported as 0.107.
For “ATTGAGACATGGACCGGTTTTCCCGGTAATCCGTATTTGGT (site ATTGAGACTAA)”, the “recombinant UMI read abundance (log10)” value was 0.949.
In the case of “CAGTCCACATGGACCGGTTTTCCCGGTAATCCGTATTTGGG (site CAGTCAACTCC)”, the “recombinant UMI read abundance (log10)” value is reported as 0.00382.
With “CGGGAACCATGGACCGGTTTTCCCGGTAATCCGTATTTGAT (site AGGGAACCTAT)” the “recombinant UMI read abundance (log10)” value was 0.
In the case of “GGGCCGGCATGGACCGGTTTTCCCGGTAATCCGTATTTGGC (site TGGCCGGCTGC)”, the “recombinant UMI read abundance (log10)” value is reported as 0.
In the case of “GCGAAGCCATGGACCGGTTTTCCCGGTAATCCGTATTTGAG (site GCGAAGCCTCC)”, the “recombinant UMI read abundance (log10)” value is reported as 0.0267.
In the case of “CTGTAGCCATGGACCGGTTTTCCCGGTAATCCGTATTTGAT (site CTGTAGCCTAT)”, the “recombinant UMI read abundance (log10)” value is reported as 0.748.
With “TTTGTTTCATGGACCGGTTTTCCCGGTAATCCGTATTTGTT (site TTTGTTTCTAA)” the “recombinant UMI read abundance (log10)” value was 0.
In the case of “GGGACGACATGGACCGGTTTTCCCGGTAATCCGTATTTGCA (site GGGACGACTTG)”, the “recombinant UMI read abundance (log10)” value is reported as 2.07.
With “TACCGTCCATGGACCGGTTTTCCCGGTAATCCGTATTTGAT (site GACCGTCCTAT)” the “recombinant UMI read abundance (log10)” value was 0.00523.
With “TCATTCTCATGGACCGGTTTTCCCGGTAATCCGTATTTGCA (site TCATGCTCTTG)” the “recombinant UMI read abundance (log10)” value was 0.00845.
With “GCAAGTGCATGGACCGGTTTTCCCGGTAATCCGTATTTGTC (site GCAAGTGCTGA)” the “recombinant UMI read abundance (log10)” value was 0.
For “CGTACGTCATGGACCGGTTTTCCCGGTAATCCGTATTTGTT (site CGTACGTCTAA)”, the “recombinant UMI read abundance (log10)” value was 0.728.
With “CTAGTATCATGGACCGGTTTTCCCGGTAATCCGTATTTGAC (site CCACTATCTGT)” the “recombinant UMI read abundance (log10)” value was 0.
In the case of “TGGTCACCATGGACCGGTTTTCCCGGTAATCCGTATTTGTC (site GTACTCACTCC)”, the “recombinant UMI read abundance (log10)” value is reported as 0.00879.
For “CACTTGGCATGGACCGGTTTTCCCGGTAATCCGTATTTGGT (site CACTTGGCTAC)”, the “recombinant UMI read abundance (log10)” value was 1.79.
With “GCAACTACATGGACCGGTTTTCCCGGTAATCCGTATTTGTG (site GCAACTACTCA)” the “recombinant UMI read abundance (log10)” value was 1.17.
In the case of “AGTTTGGCATGGACCGGTTTTCCCGGTAATCCGTATTTGCT (site GGTTTGGCTAG)”, the “recombinant UMI read abundance (log10)” value is reported as 0.

Source: the supplement of paper PMC11208160
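Note: IS621 bridge recombinase in Escherichia coli cells against a fixed T5 target plasmid.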
